Test results taken from US5169854A, “N-substituted-furylalkenyl hydroxamic acid and N-hydroxyurea compounds having lipoxygenase inhibitory activity” (Abbott Laboratories, priority 1992, dated 1992).
pIC50: −log10 of the molar value.

Tests used:
Leukotriene Biosynthesis = assay: Inhibition of leukotriene biosynthesis in vivo after oral administration, rat peritoneal anaphylaxis model; conditions: oral gavage 100 μmol/kg, one hour prior to antigen challenge, peritoneal fluid leukotrienes 15 min after challenge
Description: Inhibition of the biosynthesis of leuktrienes in vivo after oral administration of compound was determined using a rat peritoneal anaphylaxis model in a similar manner as that described by Young and coworkers (Young, P. R.; Dyer, R. D.; Carter, G. W. Fed. Proc., Fed. Am. Soc. Exp. Biol. 1985 (44), 1185). In this model rats were injected intraperitoneally (ip) with rabbit antibody to bovine serum albumin (BSA) and three hours later injected ip with BSA to induce an antgen-antibody response. Rats were sacrificed 15 minutes after this challenge and the peritoneal fluids were collected and analyzed for leukotriene levels. Test compounds were administered by gavage one hour prior to the antigen challenge. Percent inhibition values were determined by comparing the treatment group to the mean of the control group.

5-Lipoxygenase = biological target: T1, 5-Lipoxygenase (Homo sapiens, UniProt P09917); assay: Inhibition of calcium ionophore A23187-induced LTB4 biosynthesis in human whole blood (5-Lipoxygenase Inhibitory Activity); assay type: cell-based; set-up: endogenous in cells; host or cells: human heparinized whole blood (blood leukocytes)
T1 sequence (P09917 1-674): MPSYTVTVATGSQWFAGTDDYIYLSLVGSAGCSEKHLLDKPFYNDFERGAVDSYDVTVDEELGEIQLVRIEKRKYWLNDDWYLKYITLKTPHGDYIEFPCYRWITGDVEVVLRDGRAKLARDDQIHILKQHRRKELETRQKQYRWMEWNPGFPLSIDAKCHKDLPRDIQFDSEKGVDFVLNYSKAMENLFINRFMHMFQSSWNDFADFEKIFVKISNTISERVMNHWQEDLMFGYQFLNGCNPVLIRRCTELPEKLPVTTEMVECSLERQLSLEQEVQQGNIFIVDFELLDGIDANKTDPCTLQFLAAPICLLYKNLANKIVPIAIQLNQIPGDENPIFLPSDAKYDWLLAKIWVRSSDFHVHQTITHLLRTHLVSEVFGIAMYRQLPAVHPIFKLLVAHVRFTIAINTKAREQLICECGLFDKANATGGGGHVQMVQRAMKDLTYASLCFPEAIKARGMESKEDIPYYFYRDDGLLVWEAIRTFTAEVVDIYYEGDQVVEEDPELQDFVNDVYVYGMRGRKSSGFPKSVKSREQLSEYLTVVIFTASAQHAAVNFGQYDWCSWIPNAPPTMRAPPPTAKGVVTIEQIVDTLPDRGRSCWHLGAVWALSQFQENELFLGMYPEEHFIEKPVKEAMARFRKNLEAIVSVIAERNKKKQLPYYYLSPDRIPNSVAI
Description: Inhibition of leukotriene biosynthesis was evaluated in an assay, involving calcium ionophore-induced LTB4 biosynthesis expressed human whole blood. Human heparinized whole blood was preincubated with test compounds or vehicle for 15 min at 37° C. followed by calcium ionophore A23187 challenge (final concentration of 8.3 μM) and the reaction terminated after 30 min by adding two volumes of methanol containing prostaglandin B2 as an internal recovery standard. The methanol extract was analyzed for LTB4 using a commercially available radioimmunoassay.

pIC50 (5-Lipoxygenase; human heparinized whole blood, LTB4 by radioimmunoassay, A23187 8.3 μM, 15 min preincubation at 37° C.)	5-Lipoxygenase Inhibitory Activity, percent inhibition (5-Lipoxygenase; at 0.39 (10^-6 M), human whole blood LTB4)	Compound	Percent Inhibition of Leukotriene Biosynthesis at an Oral Dose of 100 μmol/kg (Leukotriene Biosynthesis)
6.80		CC(/C=C/c1ccc(Oc2ccc(F)cc2)o1)N(O)C(N)=O (stereo not shown) [Example 1, E-N-[4-(5-(4-Fluorophenoxy)-2-furanyl)but-3-en-2-yl]-N-hydroxyurea]	98%
		NC(=O)N(O)CC=Cc1ccc(Oc2ccccc2)o1 [Example 2, N-hydroxy-N-[3-(5-phenoxyfur-2-yl)prop-2-enyl]urea]	99%
	77%	Z-N-[4-(5-(4 -fluorophenoxy)-2-furanyl)-2-fluorobut-3-en-2-yl]-N-hydroxyurea [Example 3]	
